Measured values published in the kinase profiling compilation of Christmann-Franck et al. (2016).

Experiments:
Test in all cases: radiometric filter-binding kinase assay
DYRK2 (human) = DYRK2 (human) (UniProt Q92630)
INSRR (human) = INSRR (human) (UniProt P14616)
PIM2 (human) = PIM2 (human) (UniProt Q9P1W9)
STK33 (human) = STK33 (human) (UniProt Q9BYT3)
MAPK1 (human) = MAPK1 (human) (UniProt P28482)
[1] = system: PAK2 (human), Q13177 [T402E]
PAK4 (human) = PAK4 (human) (UniProt O96013)
PRKCG (human) = PRKCG (human) (UniProt P05129)
GCK (human) = GCK (human) (UniProt Q12851)
YES1 (human) = YES1 (human) (UniProt P07947)
MAPK12 (human) = MAPK12 (human) (UniProt P53778)
MAPKAPK3 (human) = MAPKAPK3 (human) (UniProt Q16644)
IRAK1 (human) = IRAK1 (human) (UniProt P51617)
NTRK1 (human) = NTRK1 (human) (UniProt P04629)
FGFR1 (human) = FGFR1 (human) (UniProt P11362)
DAPK1 (human) = DAPK1 (human) (UniProt P53355)
RIPK2 (human) = RIPK2 (human) (UniProt O43353)
MARK3 (human) = MARK3 (human) (UniProt P27448)
PRKCA (human) = PRKCA (human) (UniProt P17252)
[2] = system: AKT1 (human), P31749 [S473D]

IRAK1 (human), sequence (P51617 whole entry, looked up): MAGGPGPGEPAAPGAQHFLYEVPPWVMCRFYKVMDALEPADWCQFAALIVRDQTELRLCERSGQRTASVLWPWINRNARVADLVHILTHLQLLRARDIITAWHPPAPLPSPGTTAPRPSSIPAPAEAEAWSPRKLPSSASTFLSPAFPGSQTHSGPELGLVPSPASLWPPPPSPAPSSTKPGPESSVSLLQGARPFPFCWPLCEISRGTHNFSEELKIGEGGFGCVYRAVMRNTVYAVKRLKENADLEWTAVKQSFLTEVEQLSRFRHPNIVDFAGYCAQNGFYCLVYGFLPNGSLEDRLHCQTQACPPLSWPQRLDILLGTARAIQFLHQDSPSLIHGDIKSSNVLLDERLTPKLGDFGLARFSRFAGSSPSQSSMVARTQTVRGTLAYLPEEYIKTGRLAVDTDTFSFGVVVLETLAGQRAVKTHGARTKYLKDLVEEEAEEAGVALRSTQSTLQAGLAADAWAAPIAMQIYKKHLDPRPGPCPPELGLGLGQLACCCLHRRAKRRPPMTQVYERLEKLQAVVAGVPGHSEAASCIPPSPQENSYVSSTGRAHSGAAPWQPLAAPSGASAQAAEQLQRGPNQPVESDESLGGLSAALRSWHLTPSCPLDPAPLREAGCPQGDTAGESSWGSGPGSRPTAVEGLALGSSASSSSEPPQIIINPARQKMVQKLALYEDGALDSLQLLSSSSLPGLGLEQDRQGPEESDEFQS
RIPK2 (human), sequence (O43353 whole entry, looked up): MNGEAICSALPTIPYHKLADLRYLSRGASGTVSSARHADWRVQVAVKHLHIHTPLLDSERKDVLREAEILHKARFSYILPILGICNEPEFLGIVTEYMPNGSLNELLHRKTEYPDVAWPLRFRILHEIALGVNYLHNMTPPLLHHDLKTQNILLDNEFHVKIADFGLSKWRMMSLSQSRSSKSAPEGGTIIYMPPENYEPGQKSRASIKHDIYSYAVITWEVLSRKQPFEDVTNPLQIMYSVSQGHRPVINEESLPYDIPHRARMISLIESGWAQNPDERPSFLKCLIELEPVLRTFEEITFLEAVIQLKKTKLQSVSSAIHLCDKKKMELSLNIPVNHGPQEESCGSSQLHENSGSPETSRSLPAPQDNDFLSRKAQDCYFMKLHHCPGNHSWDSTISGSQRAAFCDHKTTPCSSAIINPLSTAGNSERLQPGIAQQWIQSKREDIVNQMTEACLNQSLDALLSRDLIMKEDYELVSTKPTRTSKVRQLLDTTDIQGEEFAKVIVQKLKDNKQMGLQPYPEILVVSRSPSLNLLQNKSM
DYRK2 (human), sequence (Q92630 whole entry, looked up): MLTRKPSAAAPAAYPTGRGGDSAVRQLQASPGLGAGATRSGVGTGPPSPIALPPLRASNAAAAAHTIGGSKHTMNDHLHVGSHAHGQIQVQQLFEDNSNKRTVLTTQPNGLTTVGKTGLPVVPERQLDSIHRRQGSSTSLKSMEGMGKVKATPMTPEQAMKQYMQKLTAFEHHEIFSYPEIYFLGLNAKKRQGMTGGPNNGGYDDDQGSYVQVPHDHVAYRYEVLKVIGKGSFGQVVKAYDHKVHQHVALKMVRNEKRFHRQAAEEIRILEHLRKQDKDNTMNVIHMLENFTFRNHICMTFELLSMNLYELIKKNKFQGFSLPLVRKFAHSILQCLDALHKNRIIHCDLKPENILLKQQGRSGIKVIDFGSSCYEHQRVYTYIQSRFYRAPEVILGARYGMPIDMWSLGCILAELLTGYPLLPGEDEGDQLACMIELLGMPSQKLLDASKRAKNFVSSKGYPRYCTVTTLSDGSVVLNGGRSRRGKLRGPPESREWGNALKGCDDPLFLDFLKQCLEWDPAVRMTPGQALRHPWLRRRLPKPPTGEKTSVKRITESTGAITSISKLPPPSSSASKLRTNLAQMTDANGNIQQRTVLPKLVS
MAPKAPK3 (human), sequence (Q16644 whole entry, looked up): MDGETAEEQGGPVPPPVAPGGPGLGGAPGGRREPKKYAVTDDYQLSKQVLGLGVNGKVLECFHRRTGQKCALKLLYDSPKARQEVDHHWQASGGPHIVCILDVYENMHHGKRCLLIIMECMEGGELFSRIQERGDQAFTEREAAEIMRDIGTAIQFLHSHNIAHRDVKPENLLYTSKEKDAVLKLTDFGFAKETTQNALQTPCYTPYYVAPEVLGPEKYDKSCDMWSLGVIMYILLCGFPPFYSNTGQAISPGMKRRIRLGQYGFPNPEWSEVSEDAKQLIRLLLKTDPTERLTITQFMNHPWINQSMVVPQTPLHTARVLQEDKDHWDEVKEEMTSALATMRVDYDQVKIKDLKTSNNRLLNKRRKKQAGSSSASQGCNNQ
MAPK1 (human), sequence (P28482 whole entry, looked up): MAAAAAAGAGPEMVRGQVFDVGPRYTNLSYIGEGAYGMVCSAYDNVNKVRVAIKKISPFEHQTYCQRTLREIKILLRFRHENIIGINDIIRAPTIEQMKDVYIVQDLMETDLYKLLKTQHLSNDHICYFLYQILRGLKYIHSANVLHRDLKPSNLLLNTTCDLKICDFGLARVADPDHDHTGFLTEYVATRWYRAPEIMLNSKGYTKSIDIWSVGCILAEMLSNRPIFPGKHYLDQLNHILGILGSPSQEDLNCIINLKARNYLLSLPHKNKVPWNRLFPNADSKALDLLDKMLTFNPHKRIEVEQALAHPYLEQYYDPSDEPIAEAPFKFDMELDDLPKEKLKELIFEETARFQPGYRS
INSRR (human), sequence (P14616 whole entry, looked up): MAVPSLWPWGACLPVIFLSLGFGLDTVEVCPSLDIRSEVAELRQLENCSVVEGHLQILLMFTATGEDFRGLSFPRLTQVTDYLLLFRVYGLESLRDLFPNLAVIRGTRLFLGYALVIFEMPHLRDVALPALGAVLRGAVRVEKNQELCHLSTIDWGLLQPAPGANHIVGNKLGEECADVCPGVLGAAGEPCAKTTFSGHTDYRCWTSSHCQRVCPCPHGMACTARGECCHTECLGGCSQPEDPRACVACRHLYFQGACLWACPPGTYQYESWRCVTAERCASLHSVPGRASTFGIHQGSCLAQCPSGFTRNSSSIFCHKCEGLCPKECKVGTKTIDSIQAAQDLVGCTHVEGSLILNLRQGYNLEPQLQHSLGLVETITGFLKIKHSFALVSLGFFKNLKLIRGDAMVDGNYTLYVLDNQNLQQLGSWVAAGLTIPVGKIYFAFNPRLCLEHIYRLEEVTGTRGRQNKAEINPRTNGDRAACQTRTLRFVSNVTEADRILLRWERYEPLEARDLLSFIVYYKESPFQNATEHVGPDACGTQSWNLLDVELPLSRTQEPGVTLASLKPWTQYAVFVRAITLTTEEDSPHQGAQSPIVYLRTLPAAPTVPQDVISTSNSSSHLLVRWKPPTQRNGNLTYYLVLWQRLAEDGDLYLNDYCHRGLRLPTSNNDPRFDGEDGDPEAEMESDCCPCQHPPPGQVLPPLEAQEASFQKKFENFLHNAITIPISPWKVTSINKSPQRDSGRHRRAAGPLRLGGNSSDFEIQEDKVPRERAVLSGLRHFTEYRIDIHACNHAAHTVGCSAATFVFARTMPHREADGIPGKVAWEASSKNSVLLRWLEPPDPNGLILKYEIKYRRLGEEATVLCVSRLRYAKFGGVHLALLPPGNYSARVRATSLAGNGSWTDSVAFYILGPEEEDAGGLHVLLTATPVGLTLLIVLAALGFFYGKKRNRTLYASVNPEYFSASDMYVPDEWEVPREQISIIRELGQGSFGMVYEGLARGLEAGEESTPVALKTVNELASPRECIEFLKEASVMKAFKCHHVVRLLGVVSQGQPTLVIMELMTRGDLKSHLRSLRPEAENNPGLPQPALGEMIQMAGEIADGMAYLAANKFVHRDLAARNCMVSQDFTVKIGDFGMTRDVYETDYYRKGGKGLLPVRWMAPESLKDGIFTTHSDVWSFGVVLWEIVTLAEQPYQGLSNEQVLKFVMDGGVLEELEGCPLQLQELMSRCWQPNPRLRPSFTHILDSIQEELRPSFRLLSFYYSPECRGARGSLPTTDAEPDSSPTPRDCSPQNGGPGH
PAK4 (human), sequence (O96013 whole entry, looked up): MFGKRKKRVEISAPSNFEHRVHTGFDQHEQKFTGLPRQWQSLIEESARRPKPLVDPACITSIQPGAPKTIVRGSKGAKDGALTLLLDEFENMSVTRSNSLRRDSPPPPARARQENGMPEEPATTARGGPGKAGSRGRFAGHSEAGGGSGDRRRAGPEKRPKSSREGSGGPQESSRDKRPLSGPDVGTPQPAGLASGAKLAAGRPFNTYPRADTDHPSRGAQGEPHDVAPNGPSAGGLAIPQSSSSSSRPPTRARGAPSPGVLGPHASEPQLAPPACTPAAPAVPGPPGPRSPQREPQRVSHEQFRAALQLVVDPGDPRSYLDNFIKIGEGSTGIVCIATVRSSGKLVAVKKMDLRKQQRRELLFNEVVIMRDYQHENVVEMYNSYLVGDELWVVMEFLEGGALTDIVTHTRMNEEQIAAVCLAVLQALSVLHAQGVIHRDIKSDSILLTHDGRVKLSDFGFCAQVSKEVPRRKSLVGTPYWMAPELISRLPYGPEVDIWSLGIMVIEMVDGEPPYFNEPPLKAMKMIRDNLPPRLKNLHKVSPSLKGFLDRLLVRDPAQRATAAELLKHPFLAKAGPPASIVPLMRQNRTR
PIM2 (human), sequence (Q9P1W9 whole entry, looked up): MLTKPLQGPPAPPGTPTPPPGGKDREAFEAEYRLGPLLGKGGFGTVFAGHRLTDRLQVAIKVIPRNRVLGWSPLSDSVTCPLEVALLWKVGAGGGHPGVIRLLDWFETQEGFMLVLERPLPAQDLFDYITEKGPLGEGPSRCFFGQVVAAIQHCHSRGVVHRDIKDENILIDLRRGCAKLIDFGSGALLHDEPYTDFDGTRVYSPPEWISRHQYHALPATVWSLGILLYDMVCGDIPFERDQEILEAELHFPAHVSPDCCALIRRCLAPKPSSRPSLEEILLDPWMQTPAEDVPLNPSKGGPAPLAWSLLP

residual activity (DYRK2 (human); compound 0.1 µM): 102%
residual activity (DYRK2 (human); compound 1.0 µM): 101%
residual activity (DYRK2 (human); compound 10.0 µM): 94.5%
residual activity (INSRR (human); compound 0.1 µM): 112%
residual activity (INSRR (human); compound 1.0 µM): 91.3%
residual activity (INSRR (human); compound 10.0 µM): 46.1%
residual activity (PIM2 (human); compound 0.1 µM): 106%
residual activity (PIM2 (human); compound 1.0 µM): 95%
residual activity (PIM2 (human); compound 10.0 µM): 102%
residual activity (STK33 (human); compound 0.1 µM): 106%
residual activity (STK33 (human); compound 1.0 µM): 96.7%
residual activity (STK33 (human); compound 10.0 µM): 79.6%
residual activity (MAPK1 (human); compound 0.1 µM): 101%
residual activity (MAPK1 (human); compound 1.0 µM): 102%
residual activity (MAPK1 (human); compound 10.0 µM): 106%
residual activity ([1]; compound 0.1 µM): 116%
residual activity ([1]; compound 1.0 µM): 100%
residual activity ([1]; compound 10.0 µM): 68.6%
residual activity (PAK4 (human); compound 0.1 µM): 109%
residual activity (PAK4 (human); compound 1.0 µM): 99.4%
residual activity (PAK4 (human); compound 10.0 µM): 77.8%
residual activity (PRKCG (human); compound 0.1 µM): 108%
residual activity (PRKCG (human); compound 1.0 µM): 102%
residual activity (PRKCG (human); compound 10.0 µM): 106%
residual activity (GCK (human); compound 0.1 µM): 24.1%
residual activity (GCK (human); compound 1.0 µM): 12.3%
residual activity (GCK (human); compound 10.0 µM): 9.08%
residual activity (YES1 (human); compound 0.1 µM): 52.9%
residual activity (YES1 (human); compound 1.0 µM): 9.77%
residual activity (YES1 (human); compound 10.0 µM): 10.6%
residual activity (MAPK12 (human); compound 1.0 µM): 37.8%
residual activity (MAPK12 (human); compound 10.0 µM): 10.8%
residual activity (MAPKAPK3 (human); compound 0.1 µM): 90.1%
residual activity (MAPKAPK3 (human); compound 1.0 µM): 82.3%
residual activity (MAPKAPK3 (human); compound 10.0 µM): 96.7%
residual activity (IRAK1 (human); compound 0.1 µM): 80.9%
residual activity (IRAK1 (human); compound 1.0 µM): 72.2%
residual activity (IRAK1 (human); compound 10.0 µM): 33.4%
residual activity (NTRK1 (human); compound 0.1 µM): 111%
residual activity (NTRK1 (human); compound 1.0 µM): 77.7%
residual activity (NTRK1 (human); compound 10.0 µM): 43.4%
residual activity (FGFR1 (human); compound 0.1 µM): 79.1%
residual activity (FGFR1 (human); compound 1.0 µM): 23.5%
residual activity (FGFR1 (human); compound 10.0 µM): 8.48%
residual activity (DAPK1 (human); compound 1.0 µM): 80.9%
residual activity (DAPK1 (human); compound 10.0 µM): 84.1%
residual activity (RIPK2 (human); compound 0.1 µM): 103%
residual activity (RIPK2 (human); compound 1.0 µM): 78.9%
residual activity (RIPK2 (human); compound 10.0 µM): 13.5%
residual activity (MARK3 (human); compound 0.1 µM): 112%
residual activity (MARK3 (human); compound 1.0 µM): 99.5%
residual activity (MARK3 (human); compound 10.0 µM): 105%
residual activity (PRKCA (human); compound 0.1 µM): 94%
residual activity (PRKCA (human); compound 1.0 µM): 84.4%
residual activity (PRKCA (human); compound 10.0 µM): 90.5%
residual activity ([2]; compound 0.1 µM): 105%
residual activity ([2]; compound 1.0 µM): 100%
residual activity ([2]; compound 10.0 µM): 69%
Compound: CCN1CCN(Cc2ccc(NC(=O)c3ccc(C)c(Oc4ccnc5[nH]ccc45)c3)cc2C(F)(F)F)CC1
